Laboratory results as given in patent publication US20220281848A1, “PYRAZOLE-SUBSTITUTED PYRROLIDINONES AS HERBICIDES” (FMC Corporation, priority 2019, published 2022).

System: plants
Test: Test D pre-emergence, other plants of Tables D1 and D3
Assay type: in vivo
Conditions: 20 DAA; for damage to plant (100=total damage to plant; 0=no damage to plant), BIDPI / damage to plant (100=total damage to plant; 0=no damage to plant), BRAPL / damage to plant (100=total damage to plant; 0=no damage to plant), CYPES / damage to plant (100=total damage to plant; 0=no damage to plant), EPHHL / damage to plant (100=total damage to plant; 0=no damage to plant), GLXMA / damage to plant (100=total damage to plant; 0=no damage to plant), IPOHE / damage to plant (100=total damage to plant; 0=no damage to plant), SORVU: preemergent; for CHEAL damage rating / GALAP damage rating / KCHSC damage rating / LOLPE damage rating / POAAN damage rating / STEME damage rating / VERPE damage rating: pre-emergence, 100=total damage, 0=no damage
Outline: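 Seeds treated with herbicide safener; sown in soil; glasshouse, 16 h light, 65% humidity. Sprayed day 1 (pre) or ~day 12 (post). Spray in 0.2% v/v adjuvant. Scored 0–100 damage: 20 DAA pre, 15 d post.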

In the case of `CN1CC(c2cnn(C)c2C(F)(F)F)C(C(=O)Nc2cccc(F)c2F)C1=O` (racemic) [Compound 25], the “damage to plant (100=total damage to plant; 0=no damage to plant), BIDPI” value (rate 15) is reported as 0, the “damage to plant (100=total damage to plant; 0=no damage to plant), BIDPI” value (rate 30) is reported as 0 and the “damage to plant (100=total damage to plant; 0=no damage to plant), BIDPI” value (rate 60) is reported as 0. For the same molecule, the “damage to plant (100=total damage to plant; 0=no damage to plant), BIDPI” value (rate 130) was 0, the “damage to plant (100=total damage to plant; 0=no damage to plant), BIDPI” value (rate 250) was 0 and the “damage to plant (100=total damage to plant; 0=no damage to plant), BIDPI” value (rate 500) was 0. The “damage to plant (100=total damage to plant; 0=no damage to plant), BRAPL” value (rate 15) was 0, the “damage to plant (100=total damage to plant; 0=no damage to plant), BRAPL” value (rate 30) was 0 and the “damage to plant (100=total damage to plant; 0=no damage to plant), BRAPL” value (rate 60) was 30. For the same molecule, the “damage to plant (100=total damage to plant; 0=no damage to plant), BRAPL” value (rate 130) was 80, the “damage to plant (100=total damage to plant; 0=no damage to plant), BRAPL” value (rate 250) was 90 and the “damage to plant (100=total damage to plant; 0=no damage to plant), BRAPL” value (rate 500) was 90. For the same molecule, the CHEAL damage rating (Rates 15) was 0, the CHEAL damage rating (Rates 30) was 0 and the CHEAL damage rating (Rates 60) was 0. For the same molecule, the CHEAL damage rating (Rates 130) was 0, the CHEAL damage rating (Rates 250) was 20 and the CHEAL damage rating (Rates 500) was 50. The “damage to plant (100=total damage to plant; 0=no damage to plant), CYPES” value (rate 15) was 0, the “damage to plant (100=total damage to plant; 0=no damage to plant), CYPES” value (rate 30) was 0 and the “damage to plant (100=total damage to plant; 0=no damage to plant), CYPES” value (rate 60) was 0. The “damage to plant (100=total damage to plant; 0=no damage to plant), CYPES” value (rate 130) was 0, the “damage to plant (100=total damage to plant; 0=no damage to plant), CYPES” value (rate 250) was 0 and the “damage to plant (100=total damage to plant; 0=no damage to plant), CYPES” value (rate 500) was 0. The “damage to plant (100=total damage to plant; 0=no damage to plant), EPHHL” value (rate 15) was 0, the “damage to plant (100=total damage to plant; 0=no damage to plant), EPHHL” value (rate 30) was 0 and the “damage to plant (100=total damage to plant; 0=no damage to plant), EPHHL” value (rate 60) was 0. The “damage to plant (100=total damage to plant; 0=no damage to plant), EPHHL” value (rate 130) was 0, the “damage to plant (100=total damage to plant; 0=no damage to plant), EPHHL” value (rate 250) was 0 and the “damage to plant (100=total damage to plant; 0=no damage to plant), EPHHL” value (rate 500) was 0. It also gave a GALAP damage rating (Rates 15) of 0, a GALAP damage rating (Rates 30) of 0 and a GALAP damage rating (Rates 60) of 0. It also gave a GALAP damage rating (Rates 130) of 0, a GALAP damage rating (Rates 250) of 0 and a GALAP damage rating (Rates 500) of 0. For the same molecule, the “damage to plant (100=total damage to plant; 0=no damage to plant), GLXMA” value (rate 15) was 0, the “damage to plant (100=total damage to plant; 0=no damage to plant), GLXMA” value (rate 30) was 0 and the “damage to plant (100=total damage to plant; 0=no damage to plant), GLXMA” value (rate 60) was 0. For the same molecule, the “damage to plant (100=total damage to plant; 0=no damage to plant), GLXMA” value (rate 130) was 0, the “damage to plant (100=total damage to plant; 0=no damage to plant), GLXMA” value (rate 250) was 0 and the “damage to plant (100=total damage to plant; 0=no damage to plant), GLXMA” value (rate 500) was 0. For the same molecule, the “damage to plant (100=total damage to plant; 0=no damage to plant), IPOHE” value (rate 15) was 0, the “damage to plant (100=total damage to plant; 0=no damage to plant), IPOHE” value (rate 30) was 0 and the “damage to plant (100=total damage to plant; 0=no damage to plant), IPOHE” value (rate 60) was 0. For the same molecule, the “damage to plant (100=total damage to plant; 0=no damage to plant), IPOHE” value (rate 130) was 0, the “damage to plant (100=total damage to plant; 0=no damage to plant), IPOHE” value (rate 250) was 0 and the “damage to plant (100=total damage to plant; 0=no damage to plant), IPOHE” value (rate 500) was 0. For the same molecule, the KCHSC damage rating (Rates 15) was 0, the KCHSC damage rating (Rates 30) was 0 and the KCHSC damage rating (Rates 60) was 0. For the same molecule, the KCHSC damage rating (Rates 130) was 0, the KCHSC damage rating (Rates 250) was 0 and the KCHSC damage rating (Rates 500) was 0. For the same molecule, the LOLPE damage rating (Rates 15) was 0, the LOLPE damage rating (Rates 30) was 0 and the LOLPE damage rating (Rates 60) was 0. The LOLPE damage rating (Rates 130) was 0, the LOLPE damage rating (Rates 250) was 0 and the LOLPE damage rating (Rates 500) was 0. For the same molecule, the POAAN damage rating (Rates 15) was 0, the POAAN damage rating (Rates 30) was 0 and the POAAN damage rating (Rates 60) was 0. It also gave a POAAN damage rating (Rates 130) of 0, a POAAN damage rating (Rates 250) of 0 and a POAAN damage rating (Rates 500) of 0. For the same molecule, the “damage to plant (100=total damage to plant; 0=no damage to plant), SORVU” value (rate 15) was 0, the “damage to plant (100=total damage to plant; 0=no damage to plant), SORVU” value (rate 30) was 0 and the “damage to plant (100=total damage to plant; 0=no damage to plant), SORVU” value (rate 60) was 0. The “damage to plant (100=total damage to plant; 0=no damage to plant), SORVU” value (rate 130) was 0, the “damage to plant (100=total damage to plant; 0=no damage to plant), SORVU” value (rate 250) was 0 and the “damage to plant (100=total damage to plant; 0=no damage to plant), SORVU” value (rate 500) was 0. It also gave an STEME damage rating (Rates 15) of 0, an STEME damage rating (Rates 30) of 0 and an STEME damage rating (Rates 60) of 0. The STEME damage rating (Rates 130) was 0, the STEME damage rating (Rates 250) was 0 and the STEME damage rating (Rates 500) was 50. For the same molecule, the VERPE damage rating (Rates 15) was 0, the VERPE damage rating (Rates 30) was 0 and the VERPE damage rating (Rates 60) was 0. It also gave a VERPE damage rating (Rates 130) of 0, a VERPE damage rating (Rates 250) of 0 and a VERPE damage rating (Rates 500) of 10.
